Molecules are shown by their SMILES. *1 amine or outer side, *2 acyl side, *3 side chain or, on linkers, in order; H or OH if unused. Where a SMILES comes first, the peptide text is derived from it. Bridges are numbered along the chain shown (N, C = ends). Roman numbers before positions name the chains, in order. [ ]: non-standard residue; d: D form. Abu(4-yl) = O=C([C@H](CC[*:3])N[*:1])[*:2]; 2Nal = N[C@@H](Cc1ccc2ccccc2c1)C(=O)O; Diglycolyl = O=C(COCC(=O)[*:2])[*:1]; AEF = NCCOc1ccc(C[C@H](N)C(=O)O)cc1; Aib = CC(C)(N)C(=O)O

Experiment [1] concerns the target T1, Interleukin-23 receptor (Homo sapiens, UniProt Q5VWK5).
T1 sequence (Q5VWK5 whole entry): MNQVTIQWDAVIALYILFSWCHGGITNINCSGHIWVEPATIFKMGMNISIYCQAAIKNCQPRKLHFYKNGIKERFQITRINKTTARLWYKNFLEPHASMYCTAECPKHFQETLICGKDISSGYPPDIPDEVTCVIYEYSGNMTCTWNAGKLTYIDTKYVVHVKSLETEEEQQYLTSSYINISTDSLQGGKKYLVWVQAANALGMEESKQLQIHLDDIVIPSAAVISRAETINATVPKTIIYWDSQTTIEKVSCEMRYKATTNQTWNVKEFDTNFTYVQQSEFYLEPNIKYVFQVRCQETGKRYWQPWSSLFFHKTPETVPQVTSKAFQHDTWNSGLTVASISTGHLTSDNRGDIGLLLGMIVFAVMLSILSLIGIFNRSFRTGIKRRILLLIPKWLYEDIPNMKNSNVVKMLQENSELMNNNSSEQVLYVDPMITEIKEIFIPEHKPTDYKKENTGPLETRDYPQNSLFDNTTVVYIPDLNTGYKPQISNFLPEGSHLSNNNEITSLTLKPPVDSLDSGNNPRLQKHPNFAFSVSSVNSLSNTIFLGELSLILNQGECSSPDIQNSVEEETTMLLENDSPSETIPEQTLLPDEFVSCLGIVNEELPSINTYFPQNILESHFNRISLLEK
The experiment is described as follows: Inhibition of interleukin-23 binding to human interleukin-23 receptor incubated for 2 hrs by competitive binding ELISA.

Experiment [2] concerns the target T1, Interleukin-23 receptor. In words: Inhibition of interleukin-23 receptor in human DB cells assessed as reduction in IL-23-stimulated STAT3 phosphorylation incubated for 30 mins by HTRF assay. It is filed as cell-based.

With `CC(=O)N[C@H]1CCSC[C@@H](C(=O)N[C@@H](Cc2ccc(OCCNC(=O)COCC(=O)NCCOc3ccc(C[C@H](NC(=O)[C@@H]4CSCC[C@H](NC(C)=O)C(=O)N[C@@H](CCC(N)=O)C(=O)N[C@@H]([C@@H](C)O)C(=O)N[C@@H](Cc5c[nH]c6ccccc56)C(=O)N[C@@H](CCC(N)=O)C(=O)N4)C(=O)N[C@@H](Cc4ccc5ccccc5c4)C(=O)NC(C)(C)C(=O)N[C@@H](CCC(N)=O)C(=O)N[C@@H](CC(N)=O)C(=O)NCC(N)=O)cc3)cc2)C(=O)N[C@@H](Cc2ccc3ccccc3c2)C(=O)NC(C)(C)C(=O)N[C@@H](CCC(N)=O)C(=O)N[C@@H](CC(N)=O)C(=O)NCC(N)=O)NC(=O)[C@H](CCC(N)=O)NC(=O)[C@H](Cc2c[nH]c3ccccc23)NC(=O)[C@H]([C@@H](C)O)NC(=O)[C@H](CCC(N)=O)NC1=O` (I: Ac-[Abu(4-yl)]QTWQC[AEF][2Nal][Aib]QNG-NH2 / II: Ac-[Abu(4-yl)]QTWQC[AEF][2Nal][Aib]QNG-NH2; thioether I:1-I:6, II:1-II:6; linker I:7-II:7 via Diglycolyl), the IC50 in experiment [1] was in the range of 0.025 to 0.1 µM; in experiment [2], 0.01 to 0.025 µM.
In the same order, the values of `CC(=O)NCCCC[C@H](NC(=O)[C@](C)(CCCCN)NC(=O)[C@H](Cc1c[nH]c2ccccc12)NC(=O)[C@H](Cc1ccc(OCCN)cc1)NC(=O)[C@@H]1CSCC[C@H](NC(C)=O)C(=O)N[C@@H](CCC(N)=O)C(=O)N[C@@H]([C@@H](C)O)C(=O)N[C@@H](Cc2c[nH]c3ccccc23)C(=O)N[C@@H](CCC(N)=O)C(=O)N1)C(=O)NC1CNC(=O)CNC1=O` (some centres undefined) are 0.025 to 0.1 µM and < 0.01 µM.
The matching figures for `CC(=O)N[C@@H](CS)C(=O)N[C@@H](C)C(=O)N[C@@H](CC(=O)O)C(=O)N[C@@H](Cc1c[nH]c2ccccc12)C(=O)N[C@H](C(=O)N[C@@H](CS)C(=O)N[C@@H](Cc1ccc(O)cc1)C(=O)N[C@@H](Cc1c[nH]c2ccccc12)C(=O)N[C@H](Cc1cnc[nH]1)C(=O)N[C@H](C(=O)N[C@@H](Cc1ccccc1)C(=O)NCC(=O)NCCOCC(=O)N[C@H](CCCCN)C(N)=O)[C@@H](C)O)C(C)C`: 0.1 to 1 µM and 0.1 to 1 µM.
With `CC(=O)N[C@H](C(=O)N[C@@H](CO)C(=O)N[C@H](C(=O)N[C@@H](Cc1c[nH]c2ccccc12)C(=O)N[C@@H](CCC(N)=O)C(=O)N[C@H](C(=O)N[C@@H](Cc1ccc(OCCN)cc1)C(=O)N[C@@H](Cc1ccc2ccccc2c1)C(=O)N[C@@](C)(CCCCN)C(=O)N[C@@H](CCC(=O)O)C(=O)N[C@@H](CC(N)=O)C(=O)NCC(N)=O)C(C)(C)S)[C@@H](C)O)C(C)(C)S`, the IC50 in experiment [1] is 0.01 to 0.025 µM; in experiment [2] it was < 0.01 µM.
As for `CC(=O)N[C@H](C(=O)NCC(=O)N[C@H](C(=O)N[C@@H](Cc1c[nH]c2ccccc12)C(=O)N[C@@H](CCC(N)=O)C(=O)N[C@H](C(=O)N[C@@H](Cc1ccc(OCCN)cc1)C(=O)N[C@@H](Cc1ccc2ccccc2c1)C(=O)N[C@@](C)(CCCCN)C(=O)N[C@@H](CCC(=O)O)C(=O)N[C@@H](CC(N)=O)C(=O)NCC(N)=O)C(C)(C)S)[C@@H](C)O)C(C)(C)S`, the IC50 is 0.01 to 0.025 µM in experiment [1] and < 0.01 µM in experiment [2].
The matching figures for `CC(=O)N[C@H](C(=O)N[C@@H](CC(N)=O)C(=O)N[C@H](C(=O)N[C@@H](Cc1c[nH]c2ccccc12)C(=O)N[C@@H](CCC(N)=O)C(=O)N[C@H](C(=O)N[C@@H](Cc1ccc(OCCN)cc1)C(=O)N[C@@H](Cc1ccc2ccccc2c1)C(=O)N[C@@](C)(CCCCN)C(=O)N[C@@H](CCC(=O)O)C(=O)N[C@@H](CC(N)=O)C(=O)NCC(N)=O)C(C)(C)S)[C@@H](C)O)C(C)(C)S`: < 0.01 µM and < 0.01 µM.
The matching figures for `CC(=O)N[C@H]1CCSC[C@@H](C(=O)N[C@@H](Cc2ccc(F)c(F)c2)C(=O)N[C@@H](Cc2ccc3ccccc3c2)C(=O)NC(C)(C)C(=O)N[C@@H](CCC(=O)O)C(=O)N[C@@H](CC(N)=O)C(=O)NCC(N)=O)NC(=O)[C@H](CCC(N)=O)NC(=O)[C@H](Cc2c[nH]c3ccccc23)NC(=O)[C@H]([C@@H](C)O)NC(=O)[C@H](CCC(N)=O)NC1=O`: 0.025 to 0.1 µM and 0.01 to 0.025 µM.
